{
  "source": "patent US20180064682A1",
  "about": "“INHIBITORS OF LEUKOTRIENE-MEDIATED ACTIVITY FOR TREATING SIDE EFFECTS OF STATIN THERAPY” (Yeda Research and Development Co. Ltd., priority 2014, published 2018)",
  "key": {"[1]": {"tested_on": "differentiated mouse C2C12 myocytes", "assay": "Simvastatin-triggered cell death of differentiated C2C12 myocytes, Crystal violet", "format": "cell-based", "conditions": "for cell death triggered by simvastatin (relative cell viability): 10 uM simvastatin, 5 days, pranlukast 10 μM, BAY-cysLT2 10 μM, BAY-u9773 1 μM", "description": "FIGS. 11A-11B. BAY-cysLT2 and BAY-u9773 but not pranlukast attenuate simvastatin-triggered cell death of differentiated C2C12 mouse myocytes. (FIG. 11A) Survival of mouse C2C12 cells following differentiation into myocytes, treated with 10 uM simvastatin for 5 days in the presence of vehicle, pranlukast (10 μM), BAY-cysLT2 (10 μM), BAY-u9773 (1 μM) or Mevalonate (71.4 μM). The plates were then stained with Crystal violet and the relative cell viability was determined. (FIG. 11B) Quantification of the staining intensity is shown.\nFIGS. 12A-12B. Zileuton but not montelukast attenuates simvastatin-triggered death of differentiated C2C12 mouse myocytes. (FIG. 12A) C2C12 immortalized mouse myoblasts (15,000 cells/100 ul DMEM) were seeded for 24 and then differentiated for 3 days (initiated by serum free medium supplemented with 1×ITS medium) and then treated with […] Simvastatin with or without montelukast (2 μM), zileuton (10 μM) or mevalonate (71.4 μM). After 4 days the cells were stained with crystal violet and photographed under light microscope. (FIG. 12B) Quantification of the staining intensity is shown.\nTo study the role of the MGST2-LTC4 pathway in statin-triggered cell death, differentiated mouse C2C12 myocytes in 96 well plates were treated with 10 uM simvastatin or vehicle in the presence of either vehicle, BAY-cysLT2 (10 μM) or BAY-u9773 (1 μM) or sodium mevalonate for 5 days.\nTo study the role of the MGST2-LTC4 pathway in statin-triggered cell death, differentiated mouse C2C12 myocytes in 96 well plates were treated with 20 uM simvastatin or vehicle in the presence of either vehicle, zileuton (10 μM) or sodium mevalonate for 4 days."}, "Human WISH cells [2]": {"tested_on": "Human WISH cells", "assay": "Brefeldin A-triggered cell death, Crystal violet viability, WISH cells", "format": "cell-based", "conditions": "Brefeldin A 0.66 μg/ml, 48 hours, BAY-cysLT2 5 μM", "description": "(§1) FIGS. 7A-7G. The MGST2-LTC4 pathway mediates ER stress-triggered cell death. (FIG. 7A) Mouse B16 cells were transfected with control siRNA (siControl) or MGST2-specific siRNA (siMGST2), treated with vehicle or tunicamycin (1 μg/ml, 24 hours) (Tm) and then stained with Crystal violet. Relative viability of the cells is shown. N=3 ***p<0.0001. (FIG. 7B) Mouse B16 cells were transfected with control siRNA (siControl) or MGST2-specific siRNA (siMGST2), treated with vehicle or tunicamycin (Tm) and then stained with Crystal violet. Silencing efficiency of mouse MGST2 mRNA as determined by qRT-PCR on replicate samples is shown. N=3, ***p<0.001. (FIG. 7C) HEK 293T cells were mock-transfected, transfected with pcDNA4 or with pcMGST2-FLAG, treated with vehicle (Control) or Brefeldin A (0.66 μg/ml, 24 hours) and then stained with Crystal violet. Relative viability of the cells is shown. N=3 ****p<0.0001. (FIG. 7D) Human HaCaT pre-keratinocytes were treated with vehicle (Control) or Brefeldin A (BfA, 1.33 μg/ml, 48 hours) in the absence or presence of BAY-u9773 (80 nM). The plates were then stained with Crystal violet. Relative viability of the cells is shown. N=4 ***p<0.0001. (FIG. 7E) Human WISH cells were treated either with vehicle (Control) or tunicamycin (1 μg/ml, 48 hours) in the absence or presence of BAY-u9773 (80 nM) and then stained with Neutral red. Relative viability of the cells is shown. […]"}, "[3]": {"tested_on": "Human HaCaT pre-keratinocytes", "assay": "ER stress-triggered ROS accumulation, DCFH-DA staining, HaCaT cells treated with Brefeldin A", "format": "cell-based", "conditions": "Brefeldin A 0.33 μg/ml, 24 hours, reversan 20 μM", "text": "FIGS. 4A-4E. ER stress-triggered ROS accumulation is mediated by MGST2-derived LTC4. (4A) Mouse B16 cells were transfected with control siRNA or MGST2 siRNA, then treated with tunicamycin and stained with the superoxide anion indicator dihydroethidium (DHE). Quantitation of relative DHE fluorescence intensity is presented as determined by the ImageJ program. N=3, ***p<0.001. (FIG. 4B) Mouse B16 cells were transfected with control siRNA or MGST2 siRNA, then treated with tunicamycin and stained with the superoxide anion indicator dihydroethidium (DHE). Silencing efficiency of mouse MGST2 mRNA as determined by qRT-PCR on replicate samples is shown. N=3, ***p<0.001. (FIG. 4C) Human HaCaT pre-keratinocytes were treated with Brefeldin A (0.33 μg/ml, 24 hours) with or without the MRP1 inhibitor reversan (20 μM) or the LTC4 antagonists pranlukast, BAY-cysLT2 or BAY-u9773. The cells were then stained with the ROS indicator DCFH-DA. Quantitative analysis of relative DCF fluorescence intensity is presented. […] N=3, * p<0.05. (FIG. 4D) Immunoblotting with anti FLAG tag of HEK 293T cell extract following transfection with either control pcDNA4 vector or pcMGST2-FLAG. (FIG. 4E) HEK 293T cells were either mock-transfected (Control), transfected with pcDNA4 or with pcMGST2-FLAG and then stained with DHE. Quantitative analysis of relative DHE fluorescence intensity is presented N=4, **p<0.01.\nER stress and oxidative stress are tightly associated, as ER stress triggers oxidative stress and vice versa. Therefore, a test for determining whether MGST2 and its product LTC4 are involved in ER stress-triggered ROS accumulation was performed. As previously reported, ER stress triggered by tunicamycin leads to accumulation of ROS, as detected by staining with the superoxide anion indicator dihydroethidium (DHE). […] MGST2 consumes GSH by coupling it not only to LTA4 but also to other substrates. […] Triggering ER stress by Brefeldin A generated ROS, as measured by the indicator dichloro-dihydro-fluorescein diacetate (DCFH-DA, FIGS. 4C, 5). […]"}, "[4]": {"tested_on": "Human HaCaT pre-keratinocytes", "assay": "ER stress-triggered oxidative DNA damage, anti 8-OHdG immunostaining, HaCaT cells", "format": "cell-based", "conditions": "Brefeldin A 48 hours", "description": "(§2) FIGS. 6A-6C. ER stress-triggered NADPH oxidase 4 (NOX4) expression, translocation towards the nuclei and DNA oxidation are mediated by the MGST2-LTC4 pathway. (FIG. 6A) Human WISH cells were treated with vehicle (Control) or Brefeldin A (0.66 μg/ml, 24 hours) in the absence or presence of BAY-u9773, MK571 or Montelukast. NOX4 levels were evaluated by immunoblotting. (FIG. 6B) Mouse B16 cells were treated with vehicle (Control) or tunicamycin (0.5 μg/ml, 24 hours) in the absence or presence of Montelukast, BAY-u9773 or BAY-cysLT2. NOX4 levels were evaluated by immunoblotting. (FIG. 6C) Human HaCaT pre-keratinocytes were treated with vehicle (Control) or Brefeldin A (48 hours) in the absence or presence of pranlukast or BAY-u9773, then immunostained with anti 8-OHdG. Quantitative analysis of 8-OHdG fluorescence intensity is shown. N=3 *p<0.05, ****p<0.001.\nAccumulation of nuclear ROS in response to ER stress will result in oxidative DNA damage. To test whether the MGST2-LTC4 pathway is involved in ER stress-triggered DNA damage, the formation of the oxidized DNA derivative 8-hydroxy-2′dexoxyguanosine (8-OHdG) was measured. […] Altogether, the ER stress-triggered DNA damage was mediated to a very large extent by the MGST2-LTC4 pathway."}, "Human WISH cells [5]": {"tested_on": "Human WISH cells", "assay": "Tunicamycin-induced cell death, Neutral red viability, WISH cells", "format": "cell-based", "conditions": "tunicamycin 1 μg/ml, 48 hours, BAY-u9773 80 nM", "description": "as §1"}, "NOX4 in human WISH cells": {"tested_on": "NOX4 in human WISH cells", "assay": "NOX4 levels by immunoblotting, WISH cells under ER stress", "format": "cell-based", "conditions": "Brefeldin A 0.66 μg/ml, 24 hours", "description": "as §2\nSeveral ligands of G-protein coupled receptors to which CysLTR1 and CysLTR2 belong elicit oxidative stress through receptor-mediated activation of NOX. Human WISH cells and Mouse B16 cells were treated with vehicle (Control) or Brefeldin A (0.66 μg/ml, 24 hours) in the absence or presence of BAY-u9773, MK571 or Montelukast and NOX4 levels were evaluated by immunoblotting."}, "[6]": {"tested_on": "Human HaCaT pre-keratinocytes", "assay": "ER stress-triggered cell death, Crystal violet viability, HaCaT cells", "format": "cell-based", "description": "as §1"}, "[7]": {"tested_on": "HMGB1 released from B16 cells", "assay": "Release of necrosis marker HMGB1 to culture medium, immunoblot, B16 cells", "format": "cell-based, mouse", "conditions": "Brefeldin A 1.3 μg/ml, 24 hours, MK571", "description": "(§3) FIGS. 8A-8C. Inhibitors of the MGST2-LTC4 Pathway Attenuate ER Stress-triggered Cell Death. (FIG. 8A) Human WISH cells were treated with vehicle (Control) or Brefeldin A (0.66 μg/ml, 48 hours) in the absence or presence of BAY-cysLT2. The plates were then stained with Crystal violet. Relative viability of the cells is shown. N=4, ***p<0.001. (FIG. 8B) Mouse B16 cells were treated with vehicle (Control) or tunicamycin (1 μg/ml, 24 hours) (Tm), thapsigargin (50 nM, 24 hours) (Tg) or Brefeldin A (BfA […], 24 hours) in the presence or absence of MK571 for 24 h. The plates were stained with Crystal violet. Relative viability of the cells is shown. N=4, ***p<0.001. (FIG. 8C) Immunoblot of the necrosis marker HMGB1 released to the culture media of B16 cells treated with vehicle (Control) or Brefeldin A (1.3 μg/ml, 24 hours) in the presence or absence of MK571. Ponceau staining serves as loading control.\n(§4) On top of its activity as an MRP1 inhibitor, MK571 is a potent selective CysLTR1 antagonist."}, "Mouse B16 cells": {"tested_on": "Mouse B16 cells", "assay": "ER stress-triggered cell death, Crystal violet viability, B16 cells", "format": "cell-based", "conditions": "24 hours, MK571 10 μM", "description": "as §3, §4"}},
  "data": [
    {"smiles": "O=C(O)c1ccc(OCCCc2ccc(OCCCCOc3ccccc3)cc2)c(C(=O)NC2CCCC(C(=O)O)C2)c1", "note": "(centres unmarked) [BAY-cysLT2]", "values": [
      {"measurement": "cell death triggered by simvastatin (relative cell viability)", "setting": "[1]", "value": "attenuated cell death"},
      {"measurement": "Brefeldin A-triggered death (relative viability)", "setting": "Human WISH cells [2]", "value": "equally protected these cells from Brefeldin A"},
      {"measurement": "ROS accumulation (relative DCF fluorescence intensity)", "setting": "[3]", "value": "significantly inhibited ROS accumulation"}
    ]},
    {"smiles": "CCCCC/C=C\\C\\C=C/C=C/C=C/[C@@H](Sc1ccc(C(=O)O)cc1)[C@@H](O)CCCC(=O)O", "note": "[BAY-u9773]", "values": [
      {"measurement": "cell death triggered by simvastatin (relative cell viability)", "setting": "[1]", "value": "attenuated cell death"},
      {"measurement": "formation of nuclear 8-OHdG (oxidative DNA damage)", "setting": "[4]", "value": "even more effective in attenuating the DNA damage"},
      {"measurement": "ROS accumulation (relative DCF fluorescence intensity)", "setting": "[3]", "value": "significantly inhibited ROS accumulation"},
      {"measurement": "tunicamycin-induced death (relative viability)", "setting": "Human WISH cells [5]", "value": "significantly attenuated tunicamycin-induced death"},
      {"measurement": "NOX4 expression upon ER stress", "setting": "NOX4 in human WISH cells", "value": "greatly inhibited NOX4 expression"},
      {"measurement": "ER stress triggered cell death (relative viability)", "setting": "[6]; Brefeldin A 1.33 μg/ml, 48 hours, BAY-u9773 80 nM", "value": "attenuated ER stress triggered cell death"}
    ]},
    {"smiles": "CN(C)C(=O)CCSC(SCCC(=O)O)c1cccc(/C=C/c2ccc3ccc(Cl)cc3n2)c1", "note": "(centres unmarked) [MK571]", "values": [
      {"measurement": "secretion of HMGB1 to the culture medium (cellular necrosis)", "setting": "[7]", "value": "reduced secretion of HMGB1"},
      {"measurement": "cell death triggered by Brefeldin A (relative viability)", "setting": "Mouse B16 cells; Brefeldin A", "value": "significantly attenuated cell death"},
      {"measurement": "cell death triggered by thapsigargin (relative viability)", "setting": "Mouse B16 cells; thapsigargin 50 nM", "value": "significantly attenuated cell death"},
      {"measurement": "cell death triggered by tunicamycin (relative viability)", "setting": "Mouse B16 cells; tunicamycin 1 μg/ml", "value": "significantly attenuated cell death"},
      {"measurement": "NOX4 expression upon ER stress", "setting": "NOX4 in human WISH cells", "value": "greatly inhibited NOX4 expression"}
    ]},
    {"smiles": "O=C(NCCCN1CCOCC1)c1cnn2c(-c3ccccc3)cc(-c3ccccc3)nc12", "note": "[reversan]", "values": [
      {"measurement": "ROS accumulation (relative DCF fluorescence intensity)", "setting": "[3]", "value": "small but statistically insignificant inhibitory effect on ROS accumulation"}
    ]},
    {"smiles": "CC(c1cc2ccccc2s1)N(O)C(N)=O", "note": "(centres unmarked) [zileuton]", "values": [
      {"measurement": "cell death triggered by simvastatin (staining intensity)", "setting": "[1]; 20 uM simvastatin, 4 days, zileuton 10 μM, montelukast 2 μM", "value": "attenuated cell death"},
      {"measurement": "death triggered by proteasome inhibitor MG262 (relative viability)", "setting": "[6]; MG262 50 nM, 24 hours, zileuton 10 μM", "value": "significantly protected HaCaT keratinocytes from death"}
    ]}
  ]
}
